The assay has as its target S. aureus 133 Translation. As to the kind of experiment: S. aureus in vitro transcription-translation assay (firefly luciferase, S30 extract). The assay is classed as biochemical. As to conditions: 50% inhibition of the translation of firefly luciferase. The text has this: For the construction of a reporter plasmid which can be used in an in vitro transcription-translation assay from S. aureus the plasmid pBESTluc (Promega Corporation, USA) is used. The E. coli tac promoter present in this plasmid in front of the firefly luciferase is replaced by the capA1 promoter with corresponding Shine-Dalgarno sequence from S. aureus. The primers CAPFor 5′-[…]-[…] GCCA-3′ and CAPRev 5′-[…]-3′ are used for this. The primer CAPFor contains the capA1 promoter, the ribosome binding site and the 5′ region of the luciferase gene. After PCR using pBESTluc as template it is possible to isolate a PCR product which contains the firefly luciferase gene with the fused capA1 promoter. This is, after restriction with ClaI and HindIII, ligated into the vector pBESTluc which has likewise been digested with ClaI and HindIII. The resulting plasmid pla can be replicated in E. coli and be used as template in the S. aureus in vitro transcription-translation test.
Six litres of BHI medium are inoculated with a 250 ml overnight culture of an S. aureus Strain and allowed to grow at 37° C. until the OD600 nm is 2-4. The cells are harvested by centrifugation and washed in 500 ml of cold buffer A (10 mM Tris acetate, pH 8.0, 14 mM magnesium acetate, 1 mM DTT, 1 M KCl). After renewed centrifugation, the cells are washed in 250 ml of cold buffer A with 50 mM KCl, and the resulting pellets are frozen at −20° C. for 60 min. The pellets are thawed on ice in 30 to 60 min and taken up to a total volume of 99 ml in buffer B (10 mM Tris acetate, pH 8.0, 20 mM magnesium acetate, 1 mM DTT, 50 mM KCl). 1.5 ml portions of lysostaphin (0.8 mg/ml) in buffer B are provided in 3 precooled centrifuge cups and each mixed with 33 ml of the cell suspension. The samples are incubated at 37° C., shaking occasionally, for 45 to 60 min, before 150 μl of a 0.5 M DTT solution are added. The lysed cells are centrifuged at 30 000×g and 4° C. for 30 min. The cell pellet is taken up in buffer B and then centrifuged again under the same conditions, and the collected supernatants are combined. The supernatants are centrifuged again under the same conditions, and 0.25 volumes of buffer C (670 mM Tris acetate, pH 8.0, 20 mM magnesium acetate, 7 mM Na3 phosphoenolpyruvate, 7 mM DTT, 5.5 mM ATP, 70 μM amino acids (complete from Promega), 75 μg of pyruvate kinase (Sigma, Germany)/ml are added to the upper ⅔ of the supernatant. The samples are incubated at 37° C. for 30 min. The supernatants are dialysed against 2 l of dialysis buffer (10 mM Tris acetate, pH 8.0, 14 mM magnesium acetate, 1 mM DTT, 60 mM potassium acetate) in a dialysis tube with a 3500 Da cut-off with one buffer change at 4° C. overnight. The dialysate is concentrated to a protein concentration of about 10 mg/ml by
covering the dialysis tube with cold PEG 8000 powder (Sigma, Germany) at 4° C. The S30 extracts can be stored in aliquots at −70° C.
The inhibition of protein biosynthesis of the compounds can be shown in an in vitro transcription-translation assay. The assay is based on the cell-free transcription and translation of firefly luciferase using the reporter plasmid pla as template and cell-free S30 extracts obtained from S. aureus. The activity of the resulting luciferase can be detected by luminescence measurement.
The amount of S30 extract or plasmid pla to be employed must be tested anew for each preparation in order to ensure an optimal concentration in the test. […] of the substance to be tested, dissolved in 5% DMSO, are introduced into an MTP. Then […] of a suitably concentrated plasmid solution pla are added. […]

What is called IC50 is the midpoint of a concentration-inhibition curve. Regarding `NC[C@H](O)C[C@@H]1NC(=O)[C@@H](N)Cc2cc(ccc2O)-c2ccc(O)c(c2)C[C@@H](C(=O)O)NC1=O` [Biphenomycin B, biphenomycin B, reference compound], the IC50 turned out to be 1.5 µM.

Values taken from patent US20080275018A1, “ANTIBACTERIAL AMIDE-MACROCYCLES V” (AiCuris GmbH & Co. KG, priority 2005, published 2008).
